Test results reported in paper PMC4984800, “A first in man, dose-finding study of the mTORC1/mTORC2 inhibitor OSI-027 in patients with advanced solid malignancies” (British Journal of Cancer, 2016).
Entries after “also recorded” stand apart in the source; their conditions may differ. Where two headings read alike, the source gives them in different places.

Key:
advanced solid tumours = assay: Preliminary antitumour activity (RECIST); type: in vivo, human
Description: (§1) Assessments by imaging techniques (CT and/or MRI) were performed every 8–12 weeks or earlier if clinically indicated. Descriptive statistics were used to summarise the safety data, including all patients who received at least one dose of OSI-027. All patients who completed the pharmacokinetic sampling were included in the PK analyses, which used descriptive statistics to summarise AUC0–∞, AUC0–t, Cmax, Clast, Tmax, Tlast, %AUC extrapolated, T1/2, clearance (Cl/F) and volume of distribution (Vz/F). Exploratory analysis were planned to correlate pharmacodynamics and pharmacokinetics. Response to treatment was evaluated according to Response Evaluation Criteria in Solid Tumors (RECIST) ([Therasse et al, 2000]).

mTORC1 = tested on: mTORC1; set-up: method as in Bhagwat et al, 2011; Falcon et al, 2011; details: ref Bhagwat et al, 2011, Falcon et al; cited from earlier work
[1] = First-in-human trial: pharmacokinetics in plasma and urine; type: in vivo; details: for AUC(0-inf) / Cmax / half-life / AUC(0-t): human, plasma, oral, median (range); for half-life: read-out: T1/2 (converted); for AUC(0-t): read-out: AUC24hr
Description: Blood and urine samples were collected at prespecified time points for 24 h after initial dose and at days 2–3 (S2) and after multiple doses on days 3–4 (S1) and 22–23 (S3) across dose levels. Predose samples were collected on days 8, 15 and 22. Urine samples were collected during cycle 1.
as §1, with “Descriptive” for “Assessments by imaging techniques (CT and/or MRI) were performed every 8–12 weeks or earlier if clinically indicated. Descriptive”

[2] = metastatic colorectal cancer, S3–10 mg
[3] = 5 mg, Schedule 3, 5 mg, Day 1, N=3
[4] = 5 mg, Schedule 3, 5 mg, Day 22, N=3
[5] = 10 mg, Schedule 1, 10 mg, Day 1, N=6
[6] = 10 mg, Schedule 1, 10 mg, Day 3, N=6
[7] = 10 mg, Schedule 3, 10 mg, Day 1, N=3
[8] = 10 mg, Schedule 3, 10 mg, Day 22, N=3
[9] = 15 mg, Schedule 1, 15 mg, Day 1, N=4
[10] = 15 mg, Schedule 1, 15 mg, Day 3, N=4
[11] = 20 mg, Schedule 1, 20 mg, Day 1, N=4
[12] = 20 mg, Schedule 1, 20 mg, Day 3, N=4
[13] = 20 mg, Schedule 3, 20 mg, Day 1, N=6
[14] = 20 mg, Schedule 3, 20 mg, Day 22, N=5
[15] = 25 mg, Schedule 3, 25 mg, Day 1, N=3
[16] = 25 mg, Schedule 3, 25 mg, Day 22, N=3
[17] = 30 mg, Schedule 1, 30 mg, Day 1, N=3
[18] = 30 mg, Schedule 1, 30 mg, Day 3, N=3

COc1cccc2cc(-c3nc([C@H]4CC[C@H](C(=O)O)CC4)n4ncnc(N)c34)[nH]c12 [OSI-027]
patients with stable disease at first follow-up radiological assessment (advanced solid tumours; 8–12 weeks): 29.7%
RECIST responses (complete or partial) (advanced solid tumours; all patients): No RECIST responses were recorded; also recorded: No complete or partial responses were observed
patients free of progression for ⩾24 weeks (advanced solid tumours; all patients): six
patients with stable disease >6 months (advanced solid tumours; all patients): 5%
reduction in the sum of target lesions diameters, single patient (advanced solid tumours; metastatic GIST, S1–120 mg): 20%
time on therapy, single patient (advanced solid tumours; metastatic GIST, S1–120 mg): 45 weeks
reduction in the size of the lesions, single patient (advanced solid tumours; [2]): 18%
time on treatment, single patient (advanced solid tumours; [2]): 49 weeks
time free of progression, single patient (advanced solid tumours; metastatic uveal melanoma, S3–35 mg): 48 weeks
IC50 (mTORC1): 22 nM
accumulation ([1]; after once daily / continuous dosing): minimal accumulation
AUC(0-inf) [1, 3]: 2140 ng·h/mL
Cmax [1, 3]: 236 ng/mL
half-life [1, 3]: 7.89 h
Cmax [1, 4]: 266 ng/mL
AUC(0-t) [1, 4]: 2040 ng·h/mL
half-life [1, 4]: 6.85 h
AUC(0-inf) [1, 5]: 5130 ng·h/mL
Cmax [1, 5]: 646 ng/mL
half-life [1, 5]: 5.98 h
Cmax [1, 6]: 602 ng/mL
AUC(0-t) [1, 6]: 4860 ng·h/mL
half-life [1, 6]: 7.74 h
AUC(0-inf) ([1]; 10 mg, Schedule 2, 10 mg, N=4): 5530 ng·h/mL
Cmax ([1]; 10 mg, Schedule 2, 10 mg, N=4): 705 ng/mL
half-life ([1]; 10 mg, Schedule 2, 10 mg, N=4): 12.3 h
AUC(0-inf) [1, 7]: 4300 ng·h/mL
Cmax [1, 7]: 547 ng/mL
half-life [1, 7]: 7.24 h
Cmax [1, 8]: 457 ng/mL
AUC(0-t) [1, 8]: 3720 ng·h/mL
half-life [1, 8]: 6.54 h
AUC(0-inf) [1, 9]: 8460 ng·h/mL
Cmax [1, 9]: 1170 ng/mL
half-life [1, 9]: 7.12 h
Cmax [1, 10]: 1270 ng/mL
AUC(0-t) [1, 10]: 9210 ng·h/mL
half-life [1, 10]: 7.69 h
AUC(0-inf) ([1]; 15 mg, Schedule 2, 15 mg, N=7): 25900 ng·h/mL
Cmax ([1]; 15 mg, Schedule 2, 15 mg, N=7): 894 ng/mL
half-life ([1]; 15 mg, Schedule 2, 15 mg, N=7): 19.3 h
AUC(0-inf) [1, 11]: 5780 ng·h/mL
Cmax [1, 11]: 804 ng/mL
half-life [1, 11]: 5.09 h
Cmax [1, 12]: 1350 ng/mL
AUC(0-t) [1, 12]: 5850 ng·h/mL
half-life [1, 12]: 5.97 h
AUC(0-inf) ([1]; 20 mg, Schedule 2, 20 mg, N=3): 9840 ng·h/mL
Cmax ([1]; 20 mg, Schedule 2, 20 mg, N=3): 1240 ng/mL
half-life ([1]; 20 mg, Schedule 2, 20 mg, N=3): 7.65 h
AUC(0-inf) [1, 13]: 9460 ng·h/mL
Cmax [1, 13]: 1300 ng/mL
half-life [1, 13]: 7.03 h
Cmax [1, 14]: 1540 ng/mL
AUC(0-t) [1, 14]: 13700 ng·h/mL
half-life [1, 14]: 9.67 h
AUC(0-inf) [1, 15]: 25100 ng·h/mL
Cmax [1, 15]: 1640 ng/mL
half-life [1, 15]: 11.1 h
Cmax [1, 16]: 1790 ng/mL
AUC(0-t) [1, 16]: 15200 ng·h/mL
half-life [1, 16]: 15 h
AUC(0-inf) [1, 17]: 45100 ng·h/mL
Cmax [1, 17]: 3620 ng/mL
half-life [1, 17]: 11.3 h
Cmax [1, 18]: 2120 ng/mL
AUC(0-t) [1, 18]: 37800 ng·h/mL
